Reference: patent US7655677B2, “Composition and method for controlling house insect pest” (priority 2002, dated 2010)

Key:
Type in all cases: in vivo
Coptotermes formosanus [1] = assay: Test Example 13: Japanese red pine poison bait, termite mortality and abnormal ratio with time
Description: A wood block of Japanese red pine (2 cm×2 cm×0.5 cm) subjected to boiling treatment in hot water, was immersed in a methanol solution of a sample compound, and then, it was dried to obtain a Japanese red pine poison bait chemical containing the sample compound in a predetermined concentration. This poison bait chemical was put into a cylindrical cup made of acrylic resin (i.e. a cup having a hole with a diameter of 10 mm formed in the bottom and having hard plaster (Dental Stone) set at the bottom in the thickness of 10 mm), and 15 termite workers (Coptotermes formosanus) were released thereon. The cup was placed in a container having wet cotton laid over the bottom, and the container was maintained at room temperature of 25° C., whereby the number of dead termites and abnormal termites in the cup was examined as the time passed, and the mortality was calculated.

Reticulitermes speratus = assay: Test Example 21: treated sandy soil with weather resistance operation, termite mortality; settings: 1000 ppm
Protocol: Sandy soil passed through a sieve of 20 mesh was dried at a temperature of 60° C. to a constant weight, and 12 g of the soil thus obtained, was packed into a cup having a diameter of 60 mm. 3 ml of a pesticide solution adjusted to a predetermined concentration, was added and sufficiently mixed, whereupon it was maintained in a constant temperature chamber of 40° C. for 95 days to carry out the weather resistance operation. After the weather resistance operation, 10 termite workers (Reticulitermes speratus) were released on this test soil. The cup was placed in a container having wet cotton laid over the bottom, and the container was maintained at room temperature of 25° C. 2 Days later and 6 days later after releasing the termites, the number of dead termites in the cup was examined, and the mortality was calculated.

Coptotermes formosanus [2] = assay: Test Example 19: gel coated on Japanese red pine wood block, termite mortality with time
Description: A gel prepared by uniformity mixing 0.2 part by weight of […], 20 parts by weight of sorbitol, 3.5 parts by weight of cross-linked product of a starch/sodium acrylate copolymer, a predetermined amount of a sample compound and a predetermined amount of water, was coated in an amount of 110 g/m^2 on a dried rectangular parallelpiped wood block of Japanese red pine of 20 mm (L)×10 mm (R)×10 mm (T). This test specimen was put into a cylindrical cup made of acrylic resin (i.e. a cup having a hole with a diameter of 10 mm in the bottom and having hard plaster (Dental Stone) set at the bottom in a thickness of 10 mm), and 20 termite workers (Coptotermes formosanus) were released thereon. The cup was placed in a container having wet cotton laid over the bottom, and the container was maintained at room temperature of 25° C., whereby the number of dead termites in the cup was examined as the time passed, and the mortality was calculated.

Lasius japonicus = assay: Test Example 23: skim milk poison bait placed near ant nest, number of ants passing the gate per minute; settings: 0.2% (W/W) bait, ants through the gate per minute
Description: 2 g of this poison bait chemical was placed directly on an optional ground surface distanced by about 50 cm from the gate of the ant nest. Before, 2 days after, 3 days after and 5 days after placing the poison bait chemical, the number of ants going out and coming in through the gate per minute was examined.

Coptotermes formosanus [3] = assay: Test Example 18: dust-coated termite workers mixed with non-treated termites, mortality with time; settings: 0.5% dust; for Mortality TS (Termite soldiers): 10 non-treated soldiers; for Mortality TW (Termite workers): 15 treated + 10 non-treated workers
Protocol: 1 mg of each dust prepared in the same manner as in Test Example 17, was uniformly dispersed in a small size glass Petri dish with a diameter of 45 mm, and 15 termite workers (Coptotermes formosanus) were released and treated for dust coating. The treated termite workers were put into a cylindrical cup made of acrylic resin (i.e. a cup having a hole with a diameter of 10 mm formed in the bottom and having hard plaster (Dental Stone) set at the bottom in a thickness of 10 mm) containing a bait log, together with 10 non-treated termite workers and 10 non-treated termite soldiers. The cup was placed in a container having wet cotton laid over the bottom, and the container was maintained at room temperature of 25° C., whereby the number of dead termites in the cup was examined as the time passed, and the mortality was calculated by the following formula.
Mortality of termite workers (%)=(Number of dead termite workers/15 treated termite workers+10 non-treated termite workers)×100
Mortality of termite soldiers (%) (Number of dead termite soldiers/10 non-treated termite soldiers)×100

[4] = weather resistance operation Negative, 2 Days later
[5] = weather resistance operation Positive (40° C. for 95 days), 2 Days later

## CC(=NN=C(Cc1ccc(C(F)(F)F)cc1)c1ccc(F)cc1)N(C)C [Compound No. II-2, [4′-fluoro-2-(4-trifluoromethylphenyl)acetophenone]N′-[1-(dimethylamino)ethylidene]hydrazone]
Coptotermes formosanus [1]; bait 0.005%, 4 Days later
  Mortality: 0%
Coptotermes formosanus [1]; bait 0.005%, 8 Days later
  Mortality: 0%
Coptotermes formosanus [1]; bait 0.005%, 10 Days later
  Mortality: 0%
Coptotermes formosanus [1]; bait 0.005%, 14 Days later
  Mortality: 30%
Coptotermes formosanus [1]; bait 0.005%, 17 Days later
  Mortality: 30 (30) %
  abnormal ratio: 30 (30) %
Coptotermes formosanus [1]; bait 0.005%, 23 Days later
  Mortality: 100%
Coptotermes formosanus [1]; bait 0.01%, 4 Days later
  Mortality: 0%
Coptotermes formosanus [1]; bait 0.01%, 8 Days later
  Mortality: 40%
  abnormal ratio: 60%
Coptotermes formosanus [1]; bait 0.01%, 10 Days later
  Mortality: 55%
  abnormal ratio: 45%
Coptotermes formosanus [1]; bait 0.01%, 14 Days later
  Mortality: 60%
  abnormal ratio: 40%
Coptotermes formosanus [1]; bait 0.01%, 17 Days later
  Mortality: 100%
Coptotermes formosanus [1]; bait 0.01%, 23 Days later
  Mortality: 100%
Coptotermes formosanus [1]; bait 0.05%, 4 Days later
  Mortality: 47%
Coptotermes formosanus [1]; bait 0.05%, 8 Days later
  Mortality: 47%
  abnormal ratio: 14%
Coptotermes formosanus [1]; bait 0.05%, 10 Days later
  Mortality: 80%
  abnormal ratio: 7%
Coptotermes formosanus [1]; bait 0.05%, 14 Days later
  Mortality: 100%
Coptotermes formosanus [1]; bait 0.05%, 17 Days later
  Mortality: 100%
Coptotermes formosanus [1]; bait 0.05%, 23 Days later
  Mortality: 100%
Coptotermes formosanus [1]; bait 0.1%, 4 Days later
  Mortality: 73%
Coptotermes formosanus [1]; bait 0.1%, 8 Days later
  Mortality: 100%
Coptotermes formosanus [1]; bait 0.1%, 10 Days later
  Mortality: 100%
Coptotermes formosanus [1]; bait 0.1%, 14 Days later
  Mortality: 100%
Coptotermes formosanus [1]; bait 0.1%, 17 Days later
  Mortality: 100%
Coptotermes formosanus [1]; bait 0.1%, 23 Days later
  Mortality: 100%
Reticulitermes speratus; [4]
  Mortality: 50 (50) %
  abnormal ratio: 50 (50) %
Reticulitermes speratus; weather resistance operation Negative, 6 Days later
  Mortality: 100%
Reticulitermes speratus; [5]
  Mortality: 10%
  abnormal ratio: 15%
Reticulitermes speratus; weather resistance operation Positive (40° C. for 95 days), 6 Days later
  Mortality: 95%
Coptotermes formosanus [2]; gel 0.005%, 2 Days later
  Mortality: 0%
Coptotermes formosanus [2]; gel 0.005%, 6 Days later
  Mortality: 0%
Coptotermes formosanus [2]; gel 0.005%, 12 Days later
  Mortality: 10%
Coptotermes formosanus [2]; gel 0.005%, 23 Days later
  Mortality: 30%
Coptotermes formosanus [2]; gel 0.005%, 34 Days later
  Mortality: 60%
Coptotermes formosanus [2]; gel 0.01%, 2 Days later
  Mortality: 0%
Coptotermes formosanus [2]; gel 0.01%, 6 Days later
  Mortality: 0%
Coptotermes formosanus [2]; gel 0.01%, 12 Days later
  Mortality: 10%
Coptotermes formosanus [2]; gel 0.01%, 23 Days later
  Mortality: 60%
Coptotermes formosanus [2]; gel 0.01%, 34 Days later
  Mortality: 100%
Coptotermes formosanus [2]; gel 0.05%, 2 Days later
  Mortality: 0%
Coptotermes formosanus [2]; gel 0.05%, 6 Days later
  Mortality: 0%
Coptotermes formosanus [2]; gel 0.05%, 12 Days later
  Mortality: 100%
Coptotermes formosanus [2]; gel 0.05%, 23 Days later
  Mortality: 100%
Coptotermes formosanus [2]; gel 0.05%, 34 Days later
  Mortality: 100%
Coptotermes formosanus [2]; gel 0.1%, 2 Days later
  Mortality: 0%
Coptotermes formosanus [2]; gel 0.1%, 6 Days later
  Mortality: 60%
Coptotermes formosanus [2]; gel 0.1%, 12 Days later
  Mortality: 100%
Coptotermes formosanus [2]; gel 0.1%, 23 Days later
  Mortality: 100%
Coptotermes formosanus [2]; gel 0.1%, 34 Days later
  Mortality: 100%
Lasius japonicus; 2 Days later
  Ants passing the nest gate per minute: 11
Lasius japonicus; 3 Days later
  Ants passing the nest gate per minute: 3
Lasius japonicus; 5 Days later
  Ants passing the nest gate per minute: 0
Lasius japonicus; Before placing poison bait chemical
  Ants passing the nest gate per minute: 153
Coptotermes formosanus [3]; 1 Day later
  Mortality TS (Termite soldiers): 0%
  Mortality TW (Termite workers): 0%
Coptotermes formosanus [3]; 8 Days later
  Mortality TS (Termite soldiers): 0%
  Mortality TW (Termite workers): 4%
Coptotermes formosanus [3]; 15 Days later
  Mortality TS (Termite soldiers): 40%
  Mortality TW (Termite workers): 52%
Coptotermes formosanus [3]; 19 Days later
  Mortality TS (Termite soldiers): 100%
  Mortality TW (Termite workers): 100%
